# Laboratory results from ChEMBL document CHEMBL1129392, “Design, synthesis, and evolution of a novel, selective, and orally bioavailable class of thrombin inhibitors: P1-argininal derivatives incorporating P3-P4 lactam sulfonamide moieties” (J Med Chem, 1996).
# Legend:
# Prothrombin [1] = biological target: T1, Prothrombin (Homo sapiens, UniProt P00734); assay: In vitro for inhibition of serine protease thrombin(FIIa).
# Serine protease 1 [2] = biological target: T2, Serine protease 1 (Homo sapiens, UniProt P07477); assay: In vitro for inhibition of serine protease Trypsin.
# T2 sequence (P07477 whole entry): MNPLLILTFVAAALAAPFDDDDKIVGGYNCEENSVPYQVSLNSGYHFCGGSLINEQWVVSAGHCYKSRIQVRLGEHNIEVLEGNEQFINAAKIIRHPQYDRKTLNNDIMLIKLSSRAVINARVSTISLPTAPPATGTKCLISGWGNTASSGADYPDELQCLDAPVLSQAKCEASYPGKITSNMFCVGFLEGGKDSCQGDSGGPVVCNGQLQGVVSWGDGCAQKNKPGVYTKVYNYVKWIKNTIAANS
# Coagulation factor X [3] = biological target: T3, Coagulation factor X (Homo sapiens, UniProt P00742)
# T3 sequence (P00742 41-179 limits assumed): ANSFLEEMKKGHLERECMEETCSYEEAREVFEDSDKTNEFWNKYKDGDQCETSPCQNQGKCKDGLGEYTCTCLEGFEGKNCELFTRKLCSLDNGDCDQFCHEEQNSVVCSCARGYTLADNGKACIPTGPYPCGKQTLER
# T3 sequence (P00742 235-488 limits assumed): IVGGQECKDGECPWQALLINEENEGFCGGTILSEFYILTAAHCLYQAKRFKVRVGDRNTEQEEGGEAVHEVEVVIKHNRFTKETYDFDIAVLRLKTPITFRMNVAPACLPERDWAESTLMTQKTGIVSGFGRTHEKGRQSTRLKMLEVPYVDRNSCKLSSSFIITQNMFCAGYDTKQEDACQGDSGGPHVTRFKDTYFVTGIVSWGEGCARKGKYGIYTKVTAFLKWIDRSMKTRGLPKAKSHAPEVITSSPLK
# Description: In vitro for inhibition of Coagulation factor X
# Prothrombin [4] = biological target: T1, Prothrombin; assay: compound was tested in vitro for inhibition of serine protease thrombin(FIIa).
# Trypsin II = biological target: T4, Trypsin II (Bos taurus, UniProt Q29463); assay: compound was tested in vitro for inhibition of serine protease Trypsin.
# T4 sequence (Q29463 whole entry): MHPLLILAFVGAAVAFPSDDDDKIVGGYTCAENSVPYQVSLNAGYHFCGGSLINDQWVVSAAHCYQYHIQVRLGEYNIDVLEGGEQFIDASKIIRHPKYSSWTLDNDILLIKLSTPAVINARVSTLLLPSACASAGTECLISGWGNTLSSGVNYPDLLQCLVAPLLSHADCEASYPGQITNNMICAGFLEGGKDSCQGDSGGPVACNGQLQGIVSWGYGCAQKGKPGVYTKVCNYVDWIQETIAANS
# Coagulation factor X [5] = biological target: T3, Coagulation factor X; assay: compound was tested in vitro for inhibition of Coagulation factor X; inactive
# Prothrombin [6] = biological target: T1, Prothrombin; assay: compound was tested in vitro for inhibition of serine protease thrombin (FIIa); inactive
# Serine protease 1 [7] = biological target: T2, Serine protease 1; assay: compound was tested in vitro for inhibition of serine protease Trypsin; inactive
# Coagulation factor X [8] = biological target: T3, Coagulation factor X; assay: compound was tested in vitro for inhibition of Coagulation factor X
Structure (SMILES),IC50 (Prothrombin [1]),IC50 (Serine protease 1 [2]),IC50 (Coagulation factor X [3]),other results
N=C(N)C1CCC[C@H](NC(=O)CN2CCC[C@H](NS(=O)(=O)CCc3ccccc3)C2=O)C1O (stereo not given in full),420 nM,2500 nM,2500 nM,
N=C(N)C1CCC[C@H](NC(=O)CN2CCC[C@@H](NS(=O)(=O)Cc3ccccc3)C2=O)C1O (stereo not given in full),157 nM,467 nM,2500 nM,
N=C(N)C1CCC[C@H](NC(=O)CN2CCC[C@H](NS(=O)(=O)Cc3ccccc3)C2=O)C1O (stereo not given in full),6.2 nM,791 nM,2500 nM,Ki (Prothrombin [4]): 1.01 nM
CCCCS(=O)(=O)N[C@H]1CCCN(CC(=O)N[C@H]2CCCC(C(=N)N)C2O)C1=O (stereo not given in full),709 nM,,2500 nM,IC50 (Trypsin II): 2500 nM
CC(C)(C)OC(=O)N[C@H]1CCCN(CC(=O)N[C@H]2CCCC(C(=N)N)C2O)C1=O (stereo not given in full),,16800 nM,2500 nM,
N=C(N)C1CCC[C@H](NC(=O)CN2CCC[C@H](NC(=O)NS(=O)(=O)c3ccccc3)C2=O)C1O (stereo not given in full),,,,IC50 (Coagulation factor X [5]): Not Active; IC50 (Prothrombin [6]): Not Active; IC50 (Serine protease 1 [7]): Not Active
N=C(N)C1CCC[C@H](NC(=O)CN2CCCC[C@H](NS(=O)(=O)c3ccccc3)C2=O)C1O (stereo not given in full),14.2 nM,16.6 nM,479 nM,
N=C(N)C1CCC[C@H](NC(=O)CN2CCC[C@H](NC(=O)Cc3ccccc3)C2=O)C1O (stereo not given in full),2500 nM,,,IC50 (Coagulation factor X [5]): Not Active; IC50 (Trypsin II): > 2500 nM
N=C(N)C1CCC[C@H](NC(=O)CN2CCC[C@H](NS(=O)(=O)c3ccccc3)C2=O)C1O (stereo not given in full),159 nM,770 nM,1100 nM,
CCCC(CCC)C(=O)N[C@@H](CC(=O)OC)C(=O)N1CCC[C@@H]1C(=O)N[C@H]1CCCC(C(=N)N)C1O (stereo not given in full),1.1 nM,1.36 nM,,
N=C(N)C1CCC[C@H](NC(=O)CN2CCC[C@H](NS(=O)(=O)c3cccc4ccccc34)C2=O)[C@@H]1O (stereo not given in full),111 nM,,2500 nM,IC50 (Trypsin II): 1020 nM
CC(C(=O)N[C@H]1CCCC(C(=N)N)C1O)N1CCC[C@H](NS(=O)(=O)Cc2ccccc2)C1=O (stereo not given in full),286 nM,,2500 nM,IC50 (Trypsin II): 293 nM
COC(=O)c1ccccc1CS(=O)(=O)N[C@H]1CCCCN(CC(=O)N[C@H]2CCCC(C(=N)N)C2O)C1=O (stereo not given in full),1.12 nM,137 nM,471 nM,Ki (Prothrombin [4]): 0.85 nM
C[C@H](C(=O)N[C@H]1CCCC(C(=N)N)C1O)N1CCCC[C@H](NS(=O)(=O)Cc2ccccc2)C1=O (stereo not given in full),> 2500 nM,> 2500 nM,,IC50 (Coagulation factor X [5]): Not Active
N=C(N)C1CCC[C@H](NC(=O)CN2CCCC[C@H](NS(=O)(=O)Cc3ccccc3)C2=O)C1O (stereo not given in full),0.71 nM,74.5 nM,20.6 nM,Ki (Prothrombin [4]): 0.54 nM
N=C(N)C1CCCC(NC(=O)CN2CC[C@H](NS(=O)(=O)Cc3ccccc3)C2=O)C1O (stereo not given in full),,,,IC50 (Coagulation factor X [8]): 2500 nM; IC50 (Prothrombin [4]): 125 nM; IC50 (Trypsin II): 538 nM
N=C(N)C1CCC[C@H](NC(=O)CN2CCC[C@H](NS(=O)(=O)NC3CCCCC3)C2=O)C1O (stereo not given in full),235 nM,147 nM,1950 nM,
CN[C@H](Cc1ccccc1)C(=O)N1CCC[C@@H]1C(=O)N[C@H]1CCCC(C(=N)N)C1O (stereo not given in full),0.7 nM,1.52 nM,> 2500 nM,
